Numbered stars: 1 amine (or outer) side, 2 acyl side, 3 side chain; on linkers, the order of the positions; unused ones are H or OH. Side chains are listed from the residue outwards. Ends that are not written are not given here. Peptide text beside a SMILES is read from it. * marks the point of attachment. γGlu = O=C(O)[C@H](CCC(=O)[*:2])N[*:1]; Lauroyl = CCCCCCCCCCCC(=O)*; Octanoyl = CCCCCCCC(=O)*; Propionyl = CCC(=O)*
Tests used:
Assay type in all cases: cell-based
hY4R = hY4R (Homo sapiens, UniProt P50391); experiment: Inositol phosphate accumulation assay, hY4R; settings: for Emax: read-out: hY4R Emax
hY2R = target: T1, hY2R (Homo sapiens, UniProt P49146); experiment: Inositol phosphate accumulation assay, hY2R; settings: for Emax: read-out: hY2R Emax
T1 sequence (P49146 1-381): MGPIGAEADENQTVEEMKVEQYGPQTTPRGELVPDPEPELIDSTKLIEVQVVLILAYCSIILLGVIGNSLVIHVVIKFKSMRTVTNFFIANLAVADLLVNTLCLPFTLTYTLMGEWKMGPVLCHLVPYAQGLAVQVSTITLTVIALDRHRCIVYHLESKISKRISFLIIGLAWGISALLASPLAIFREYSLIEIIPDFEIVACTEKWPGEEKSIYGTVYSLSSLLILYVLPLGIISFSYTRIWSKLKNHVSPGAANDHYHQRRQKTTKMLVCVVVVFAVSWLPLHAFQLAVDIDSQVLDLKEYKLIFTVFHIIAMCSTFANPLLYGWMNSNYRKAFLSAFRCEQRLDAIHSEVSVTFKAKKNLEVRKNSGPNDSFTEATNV

hY1R = target: T2, hY1R (Homo sapiens, UniProt P25929); experiment: Inositol phosphate accumulation assay, hY1R; settings: for Emax: read-out: hY1R Emax
T2 sequence (P25929 1-384): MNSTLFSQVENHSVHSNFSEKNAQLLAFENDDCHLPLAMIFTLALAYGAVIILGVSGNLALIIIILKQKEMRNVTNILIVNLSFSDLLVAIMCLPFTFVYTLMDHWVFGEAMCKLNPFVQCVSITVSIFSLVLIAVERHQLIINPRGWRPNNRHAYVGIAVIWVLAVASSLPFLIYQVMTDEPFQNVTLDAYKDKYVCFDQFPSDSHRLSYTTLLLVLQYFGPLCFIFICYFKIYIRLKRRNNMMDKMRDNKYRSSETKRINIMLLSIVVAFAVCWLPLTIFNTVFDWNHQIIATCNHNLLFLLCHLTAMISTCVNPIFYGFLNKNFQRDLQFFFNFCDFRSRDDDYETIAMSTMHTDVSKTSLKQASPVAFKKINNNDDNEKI

hY5R = target: T3, hY5R (Homo sapiens, UniProt Q15761); experiment: Inositol phosphate accumulation assay, hY5R; settings: for Emax: read-out: hY5R Emax
T3 sequence (Q15761 1-445): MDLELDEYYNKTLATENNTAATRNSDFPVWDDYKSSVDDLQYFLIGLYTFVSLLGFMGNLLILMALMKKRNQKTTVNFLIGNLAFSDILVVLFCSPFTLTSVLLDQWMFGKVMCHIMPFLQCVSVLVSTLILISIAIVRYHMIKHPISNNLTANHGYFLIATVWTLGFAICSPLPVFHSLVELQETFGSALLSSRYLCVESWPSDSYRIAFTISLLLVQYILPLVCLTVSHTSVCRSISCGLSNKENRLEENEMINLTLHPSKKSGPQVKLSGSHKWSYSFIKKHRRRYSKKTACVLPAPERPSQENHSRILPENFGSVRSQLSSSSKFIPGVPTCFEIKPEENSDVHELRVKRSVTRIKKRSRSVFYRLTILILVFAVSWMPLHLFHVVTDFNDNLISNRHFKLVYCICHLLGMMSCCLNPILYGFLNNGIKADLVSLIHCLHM

Sequence of hY4R (P50391 whole entry): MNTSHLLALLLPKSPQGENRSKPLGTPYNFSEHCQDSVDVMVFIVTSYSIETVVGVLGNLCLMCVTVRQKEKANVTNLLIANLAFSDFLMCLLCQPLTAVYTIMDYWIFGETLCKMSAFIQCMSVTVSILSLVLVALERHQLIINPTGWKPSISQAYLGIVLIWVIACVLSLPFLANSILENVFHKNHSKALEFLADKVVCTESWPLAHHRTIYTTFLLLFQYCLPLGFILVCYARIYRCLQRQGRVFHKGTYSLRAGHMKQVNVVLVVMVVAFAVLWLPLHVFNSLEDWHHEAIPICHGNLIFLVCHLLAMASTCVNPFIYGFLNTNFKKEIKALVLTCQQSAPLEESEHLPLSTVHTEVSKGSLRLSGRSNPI

Molecule	EC50 (hY4R) [nM]	Emax (hY4R) [%]	EC50 (hY2R) [nM]	Emax (hY2R) [%]	EC50 (hY1R) [nM]	Emax (hY1R) [%]	EC50 (hY5R) [nM]	Emax (hY5R) [%]
CC[C@H](C)[C@H](NC(=O)[C@H](Cc1ccc(O)cc1)NC(=O)[C@H](CCCNC(=N)N)NC(=O)[C@H](CCCNC(=N)N)NC(=O)[C@H](CC(C)C)NC(=O)[C@H](CC(=O)O)NC(=O)[C@H](C)NC(=O)[C@H](C)NC(=O)[C@H](Cc1ccc(O)cc1)NC(=O)[C@H](CCC(N)=O)NC(=O)[C@H](C)NC(=O)[C@H](CCSC)NC(=O)[C@H](CCC(N)=O)NC(=O)[C@H](CCC(=O)O)NC(=O)[C@@H]1CCCN1C(=O)[C@@H](NC(=O)[C@H](C)NC(=O)[C@H](CC(N)=O)NC(=O)[C@H](CC(=O)O)NC(=O)CNC(=O)[C@@H]1CCCN1C(=O)[C@H](Cc1ccc(O)cc1)NC(=O)[C@@H](NC(=O)[C@@H]1CCCN1C(=O)[C@H](CCC(=O)O)NC(=O)[C@H](CC(C)C)NC(=O)[C@@H]1CCCN1C(=O)[C@H](C)N)C(C)C)[C@@H](C)O)C(=O)N[C@@H](CC(N)=O)C(=O)N[C@@H](CCSC)C(=O)N[C@@H](CC(C)C)C(=O)N[C@H](C(=O)N[C@@H](CCCNC(=N)N)C(=O)N1CCC[C@H]1C(=O)N[C@@H](CCCNC(=N)N)C(=O)N[C@@H](Cc1ccc(O)cc1)C(N)=O)[C@@H](C)O [1a, hPP, reference compound]	–	–	–	96 ± 5	–	95 ± 3	–	90 ± 5
CCCCCCCCCCCC(=O)N[C@@H](CCC(=O)NCCCC[C@H](NC(=O)[C@H](CC(N)=O)NC(=O)[C@@H](NC(=O)[C@H](Cc1ccc(O)cc1)NC(=O)[C@H](CCCNC(=N)N)NC(=O)[C@H](CCCNC(=N)N)NC(=O)[C@H](CC(C)C)NC(=O)[C@H](CC(=O)O)NC(=O)[C@H](C)NC(=O)[C@H](C)NC(=O)[C@H](Cc1ccc(O)cc1)NC(=O)[C@H](CCC(N)=O)NC(=O)[C@H](C)NC(=O)[C@H](CCSC)NC(=O)[C@H](CCC(N)=O)NC(=O)[C@H](CCC(=O)O)NC(=O)[C@@H]1CCCN1C(=O)[C@@H](NC(=O)[C@H](C)NC(=O)[C@H](CC(N)=O)NC(=O)[C@H](CC(=O)O)NC(=O)CNC(=O)[C@@H]1CCCN1C(=O)[C@H](Cc1ccc(O)cc1)NC(=O)[C@@H](NC(=O)[C@@H]1CCCN1C(=O)[C@H](CCC(=O)O)NC(=O)[C@H](CC(C)C)NC(=O)[C@@H]1CCCN1)C(C)C)[C@@H](C)O)[C@@H](C)CC)C(=O)N[C@@H](CC(C)C)C(=O)N[C@H](C(=O)N[C@@H](CCCNC(=N)N)C(=O)N1CCC[C@H]1C(=O)N[C@@H](CCCNC(=N)N)C(=O)N[C@@H](Cc1ccc(O)cc1)C(N)=O)[C@@H](C)O)C(=O)O [compound 17, [K^30(E-Laur)]hPP2–36] (H-PLEPVYPGDNATPEQMAQYAADLRRYINK([γGlu-Lauroyl])LTRPRY-NH2)	3.6	83 ± 5	296	98 ± 4	> 1000	81 ± 4	38.8	81 ± 5
PLEPVYPGDNATPEQMAQYAADLRRYINKLTRPRY-NH2 [14a, [K^30]hPP2–36]	1.4	95 ± 4	–	–	> 1000	93 ± 5	23.9	79 ± 4

Continued, values first:

EC50 (hY4R) [nM]	Emax (hY4R) [%]	EC50 (hY2R) [nM]	Emax (hY2R) [%]	EC50 (hY1R) [nM]	Emax (hY1R) [%]	EC50 (hY5R) [nM]	Emax (hY5R) [%]	Molecule
3.1	91 ± 4	> 1000	88 ± 7	> 1000	84 ± 4	26	84 ± 4	CCCCCCCC(=O)N[C@@H](CCC(=O)NCCCC[C@H](NC(=O)[C@H](C)NC(=O)[C@H](Cc1ccc(O)cc1)NC(=O)[C@H](CCC(N)=O)NC(=O)[C@H](C)NC(=O)[C@H](CCSC)NC(=O)[C@H](CCC(N)=O)NC(=O)[C@H](CCC(=O)O)NC(=O)[C@@H]1CCCN1C(=O)[C@@H](NC(=O)[C@H](C)NC(=O)[C@H](CC(N)=O)NC(=O)[C@H](CC(=O)O)NC(=O)CNC(=O)[C@@H]1CCCN1C(=O)[C@H](Cc1ccc(O)cc1)NC(=O)[C@@H](NC(=O)[C@@H]1CCCN1C(=O)[C@H](CCC(=O)O)NC(=O)[C@H](CC(C)C)NC(=O)[C@@H]1CCCN1)C(C)C)[C@@H](C)O)C(=O)N[C@@H](CC(=O)O)C(=O)N[C@@H](CC(C)C)C(=O)N[C@@H](CCCNC(=N)N)C(=O)N[C@@H](CCCNC(=N)N)C(=O)N[C@@H](Cc1ccc(O)cc1)C(=O)N[C@H](C(=O)N[C@@H](CC(N)=O)C(=O)N[C@@H](CCSC)C(=O)N[C@@H](CC(C)C)C(=O)N[C@H](C(=O)N[C@@H](CCCNC(=N)N)C(=O)N1CCC[C@H]1C(=O)N[C@@H](CCCNC(=N)N)C(=O)N[C@@H](Cc1ccc(O)cc1)C(N)=O)[C@@H](C)O)[C@@H](C)CC)C(=O)O [compound 10, [K^22(E-Capr)]hPP2–36] (H-PLEPVYPGDNATPEQMAQYAK([γGlu-Octanoyl])DLRRYINMLTRPRY-NH2)
1.2	82 ± 4	> 1000	85 ± 5	> 1000	84 ± 6	386	75 ± 5	CCCCCCCC(=O)N[C@@H](CCC(=O)NCCCC[C@H](NC(=O)[C@H](CC(N)=O)NC(=O)[C@@H](NC(=O)[C@H](Cc1ccc(O)cc1)NC(=O)[C@H](CCCNC(=N)N)NC(=O)[C@H](CCCNC(=N)N)NC(=O)[C@H](CC(C)C)NC(=O)[C@H](CC(=O)O)NC(=O)[C@H](C)NC(=O)[C@H](C)NC(=O)[C@H](Cc1ccc(O)cc1)NC(=O)[C@H](CCC(N)=O)NC(=O)[C@H](C)NC(=O)[C@H](CCSC)NC(=O)[C@H](CCC(N)=O)NC(=O)[C@H](CCC(=O)O)NC(=O)[C@@H]1CCCN1C(=O)[C@@H](NC(=O)[C@H](C)NC(=O)[C@H](CC(N)=O)NC(=O)[C@H](CC(=O)O)NC(=O)CNC(=O)[C@@H]1CCCN1C(=O)[C@H](Cc1ccc(O)cc1)NC(=O)[C@@H](NC(=O)[C@@H]1CCCN1C(=O)[C@H](CCC(=O)O)NC(=O)[C@H](CC(C)C)NC(=O)[C@@H]1CCCN1)C(C)C)[C@@H](C)O)[C@@H](C)CC)C(=O)N[C@@H](CC(C)C)C(=O)N[C@H](C(=O)N[C@@H](CCCNC(=N)N)C(=O)N1CCC[C@H]1C(=O)N[C@@H](CCCNC(=N)N)C(=O)N[C@@H](Cc1ccc(O)cc1)C(N)=O)[C@@H](C)O)C(=O)O [16a, [K^30(E-Capr)]hPP2–36] (H-PLEPVYPGDNATPEQMAQYAADLRRYINK([γGlu-Octanoyl])LTRPRY-NH2)
1.3	88 ± 4	> 1000	88 ± 6	> 1000	99 ± 4	937	70 ± 3	CCC(=O)N[C@@H](CCC(=O)NCCCC[C@H](NC(=O)[C@H](CC(N)=O)NC(=O)[C@@H](NC(=O)[C@H](Cc1ccc(O)cc1)NC(=O)[C@H](CCCNC(=N)N)NC(=O)[C@H](CCCNC(=N)N)NC(=O)[C@H](CC(C)C)NC(=O)[C@H](CC(=O)O)NC(=O)[C@H](C)NC(=O)[C@H](C)NC(=O)[C@H](Cc1ccc(O)cc1)NC(=O)[C@H](CCC(N)=O)NC(=O)[C@H](C)NC(=O)[C@H](CCSC)NC(=O)[C@H](CCC(N)=O)NC(=O)[C@H](CCC(=O)O)NC(=O)[C@@H]1CCCN1C(=O)[C@@H](NC(=O)[C@H](C)NC(=O)[C@H](CC(N)=O)NC(=O)[C@H](CC(=O)O)NC(=O)CNC(=O)[C@@H]1CCCN1C(=O)[C@H](Cc1ccc(O)cc1)NC(=O)[C@@H](NC(=O)[C@@H]1CCCN1C(=O)[C@H](CCC(=O)O)NC(=O)[C@H](CC(C)C)NC(=O)[C@@H]1CCCN1)C(C)C)[C@@H](C)O)[C@@H](C)CC)C(=O)N[C@@H](CC(C)C)C(=O)N[C@H](C(=O)N[C@@H](CCCNC(=N)N)C(=O)N1CCC[C@H]1C(=O)N[C@@H](CCCNC(=N)N)C(=O)N[C@@H](Cc1ccc(O)cc1)C(N)=O)[C@@H](C)O)C(=O)O [15a, [K^30(E-Prop)]hPP2–36] (H-PLEPVYPGDNATPEQMAQYAADLRRYINK([γGlu-Propionyl])LTRPRY-NH2)
